This note sets out measurements from ChEMBL document CHEMBL5331043, “A comprehensive review on acridone based derivatives as future anti-cancer agents and their structure activity relationships” (Eur J Med Chem, 2022).

The structures appear in SMILES notation. Several values for one entry are separate records, joined by “and”; a condition that tells them apart may be missing. Equal entries are not always repeated.

Assay [1] has as its system NCI-H23. Kind of assay: Cytotoxicity against human NCI-H23 cells. It is filed as functional. The conditions noted are these: read-out: LC50 (the source's name).
In assay [2] the test system is M14. As to the kind of experiment: Cytotoxicity against human M14 cells. The format is functional. The conditions noted are these: read-out: LC50 (the source's name).
Assay [3] concerns UACC-62. Kind of assay: Cytotoxicity against human UACC-62 cells. It is filed as functional. The conditions noted are these: read-out: LC50 (the source's name).
The test system of assay [4] is A498. As to the kind of experiment: Cytotoxicity against human A498 cells. It is filed as functional. Conditions: read-out: LC50 (the source's name).
In assay [5] the test system is MCF7. Kind of assay: Cytotoxicity against human MCF7 cells assessed as reduction in cell viability incubated for 72 hrs by MTT assay. It is filed as functional, cell-based. Conditions: MCF7, 72 h. For orientation: Tetrazolium assays rely on reduction of a dye to a coloured formazan, in cell work by metabolically active cells.
For assay [6], the system named is MDA-MB-231. As to the kind of experiment: Cytotoxicity against human MDA-MB-231 cells assessed as reduction in cell viability incubated for 72 hrs by MTT assay. It is filed as functional, cell-based. Conditions: MDA-MB-231, 72 h.
Assay [7] concerns MCF7. Kind of assay: Cytotoxicity against human wild type MCF7 cells. It is filed as functional, cell-based.
Assay [8] can be described thus: Cytotoxicity against human MCF7/Mitox cells. It is filed as functional, cell-based.
For assay [9], the system named is MCF7-DOX. Kind of assay: Cytotoxicity against human MCF7-DOX cells. The format is functional, cell-based.
For assay [10], the target named is Stimulator of interferon genes protein (Homo sapiens, UniProt Q86WV6). Kind of assay: Activation of STING pathway in human 293T-hSTING-R232 cells incubated for 48 hrs by QUANTI-Luc assay. The format is cell-based, 293T-hSTING-R232 cell.
Chain of Stimulator of interferon genes protein (Q86WV6 whole entry): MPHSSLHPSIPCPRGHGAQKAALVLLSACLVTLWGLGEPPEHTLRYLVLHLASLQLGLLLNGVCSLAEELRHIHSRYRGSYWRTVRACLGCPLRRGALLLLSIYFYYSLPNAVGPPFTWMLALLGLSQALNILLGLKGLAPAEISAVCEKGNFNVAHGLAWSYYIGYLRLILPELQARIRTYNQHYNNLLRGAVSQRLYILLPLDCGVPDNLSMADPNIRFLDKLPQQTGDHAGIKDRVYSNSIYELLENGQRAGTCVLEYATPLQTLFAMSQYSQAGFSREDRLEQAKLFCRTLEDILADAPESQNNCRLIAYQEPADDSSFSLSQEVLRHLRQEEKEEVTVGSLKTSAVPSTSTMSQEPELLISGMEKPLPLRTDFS
The nature of assay [11]: Cytotoxicity against human MDA-MB-231/BCRP cells assessed as reduction in cell growth by resazurin reduction assay. It is filed as functional, cell-based. On the technique in general: Resazurin is reduced to fluorescent resorufin, in cell work by metabolically active cells.
Assay [12] relates to HL-60. As to the kind of experiment: Cytotoxicity against human HL-60 cells assessed as cell growth inhibition incubated for 72 hrs by tryphan blue staining based analysis. Conditions: HL-60, 72 h. The format is functional.
For assay [13], the system named is MCF7. Kind of assay: Cytotoxicity against human wild type MCF7 cells assessed as reduction in cell viability measured after 72 hrs by SRB assay. The format is functional, cell-based. Conditions: MCF7, 72 h. In general terms: The SRB assay estimates cell density from bound dye.
A short description of assay [14]: Cytotoxicity against human mitoxantrone resistant human MCF7/Mitox cells assessed as reduction in cell viability incubated for 72 hrs by SRB assay. It is filed as functional, cell-based.
The subject of assay [15] is MCF7-DOX. As to the kind of experiment: Cytotoxicity against human doxorubicin resistant MCF7-DOX cells assessed as reduction in cell viability incubated for 72 hrs by SRB assay. The format is functional, cell-based.
Assay [16] has as its system PC-3. Kind of assay: Antiproliferative activity against human PC-3 cells assessed as reduction in cell viability measured after 24 hrs by MTT assay. The format is functional, cell-based. The conditions noted are these: PC-3, 24 h.
Assay [17] addresses MAP/microtubule affinity-regulating kinase 4 (Homo sapiens, UniProt Q96L34). As to the kind of experiment: Inhibition of human MARK4 ATPase activity using ATP as substrate incubated for 10 to 20 mins by Biomol green reagent based ELISA analysis.
In assay [18] the test system is MCF7. As to the kind of experiment: Antiproliferative activity against human MCF7 cells assessed as reduction in cell viability incubated for 48 hrs by MTT assay. It is filed as functional, cell-based. Conditions: MCF7, 48 h.
Assay [19] relates to SW1573. Kind of assay: Cytotoxicity against human SW1573 cells assessed as reduction in cell viability incubated for 72 hrs by SRB assay. It is filed as functional, cell-based. The conditions noted are these: SW1573, 72 h.
For assay [20], the system named is HL-60. Kind of assay: Anticancer activity against human HL-60 cells assessed as cell growth inhibition incubated for 72 hrs by MTT assay. The format is functional, cell-based. Conditions: HL-60, 72 h.
Assay [21] has as its system P388. Kind of assay: Cytotoxicity against mouse P388 cells. The format is functional, cell-based.
Assay [22] has as its system HL60/ADR. Kind of assay: Cytotoxicity against drug resistant human HL60/ADR cells assessed as inhibition of cell growth incubated for 72 hrs by SRB assay. It is filed as functional, cell-based.
Assay [23] in a line: Cytotoxicity against drug resistant human HL60/VCR assessed as inhibition of cell growth incubated for 72 hrs by SRB assay. The format is functional, cell-based.
Assay [24] has as its system HL-60. As to the kind of experiment: Cytotoxicity against human HL-60 cells assessed as cell growth inhibition incubated for 72 hrs by SRB assay. The format is functional, cell-based. Conditions: HL-60, 72 h.

Chain of MAP/microtubule affinity-regulating kinase 4 (Q96L34 whole entry): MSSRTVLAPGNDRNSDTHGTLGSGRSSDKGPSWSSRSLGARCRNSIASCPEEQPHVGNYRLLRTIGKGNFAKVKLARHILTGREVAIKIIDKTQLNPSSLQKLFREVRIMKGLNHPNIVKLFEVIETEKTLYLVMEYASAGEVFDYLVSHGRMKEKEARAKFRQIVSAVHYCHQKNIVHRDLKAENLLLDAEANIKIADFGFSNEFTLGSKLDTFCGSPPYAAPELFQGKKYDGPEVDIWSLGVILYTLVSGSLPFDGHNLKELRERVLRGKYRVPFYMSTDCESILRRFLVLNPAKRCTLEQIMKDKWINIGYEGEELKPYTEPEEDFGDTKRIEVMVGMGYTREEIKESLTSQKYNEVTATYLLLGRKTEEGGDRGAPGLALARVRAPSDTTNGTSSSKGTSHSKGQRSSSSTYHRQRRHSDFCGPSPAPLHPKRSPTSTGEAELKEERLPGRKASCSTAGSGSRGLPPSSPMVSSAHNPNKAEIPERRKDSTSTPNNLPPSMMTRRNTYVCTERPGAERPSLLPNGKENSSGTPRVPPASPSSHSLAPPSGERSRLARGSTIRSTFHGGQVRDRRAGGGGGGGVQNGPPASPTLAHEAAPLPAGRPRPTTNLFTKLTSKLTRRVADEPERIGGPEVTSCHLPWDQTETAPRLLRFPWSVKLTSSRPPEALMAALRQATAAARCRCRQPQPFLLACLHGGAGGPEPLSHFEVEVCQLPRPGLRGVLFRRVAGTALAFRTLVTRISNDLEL

Consider `COc1cc2c(cc1OCCCNC(=O)c1cccc3c(O)c4ccccc4nc13)N=C[C@@H]1CCCN1C2=O`, for which the CC50 in [1] was 0.07 µM; in [2], less than 0.01 µM; in assay [3], less than 0.01 µM; in [4], 0.05 µM.

A word on the IC50: it is the point on the concentration scale where inhibition reaches its midpoint. On to `CCOC(=O)c1c(C)nc(NNC(=O)c2cccc3c(=O)c4ccccc4[nH]c23)nc1-c1ccc(F)cc1`, for which the IC50 in [5] worked out at 7.3 µM. For `CCOC(=O)c1c(C)nc(NNC(=O)c2cccc3c(=O)c4ccccc4[nH]c23)nc1-c1ccccc1F`, in assay [6], the IC50 turned out to be 7.12 µM. Regarding `CCOC(=O)c1c(C)nc(NNC(=O)c2cccc3c(=O)c4ccccc4[nH]c23)nc1-c1ccc(OC)cc1`, in [6], the IC50 was found to be 6.28 µM.

For `Cc1ccc(NC(=O)c2cccc3c(=O)c4ccccc4[nH]c23)cc1`, the IC50 in assay [7] came to 6.5 µM; in assay [8] it was 7.4 µM; in assay [9], 8.3 µM. The EC50 is the concentration that produces a half-maximal response. A lower EC50 goes with higher potency in that assay. Compound `COc1cc2c(=O)c3cccc(CC(=O)O)c3[nH]c2c(C)c1C` returned an EC50 in assay [10] of 134 µM. Turning to `COc1cc(OC)c2c(=O)c3ccccc3n(C)c2c1`, in [11], the IC50 was determined as 3.38 µM. As for `CCOC(=O)c1c(C)nc(NNC(=O)c2cccc3c(=O)c4ccccc4[nH]c23)nc1-c1ccc(CC(C)C)cc1`, the figures for the IC50 in assay [5] and in assay [6] were 4.32 µM and 8.61 µM, respectively.

Regarding `CCN(CC)CCCCn1c2ccccc2c(=O)c2c(OC(C)=O)cc(OC(C)=O)cc21`, the IC50 in assay [12] came to 0.45 µM. `O=C(c1ccc2c(c1)c(=O)c1ccccc1n2CCCCO[N+](=O)[O-])N1CCOCC1`: the IC50 is 0.8 µM in [13]; 0.8 µM and > 2.7 µM in assay [14]; more than 1.9 µM in assay [15]. On to `CN(C)CCNC(=O)c1ccc([N+](=O)[O-])c2[nH]c3ccccc3c(=O)c12`, for which the IC50 in assay [16] turned out to be 1.2 µM. For `Cc1ccc(NC(=O)Cn2c3ccccc3c(=O)c3cc(C)ccc32)cc1`, the IC50 in assay [17] is 1.8 µM; in [18], 5.2 µM. Regarding `O=C(NN1CCN(c2ccccc2)CC1)c1cccc2c(=O)c3ccccc3[nH]c12`, the IC50 in assay [7] amounted to 4.5 µM; in assay [8], 5.1 µM; in assay [9], 6.6 µM. On to `O=c1c2ccccc2n(CCCCN2CCN(CCO)CC2)c2c(F)cccc12`, for which the IC50 in assay [19] came out at 5.1 µM. Consider `N#Cc1c(F)c(Cl)c2[nH]c3ccccc3c(=O)c2c1F`, for which, in assay [20], the IC50 is 0.007 µM.

`CN(C)CCn1c(=O)c2cc(N)cc3c(=O)c4ccccc4n(c1=O)c32` came in with an IC50 in assay [21] of 63 µM. Same read-out and setting: then `CC(=O)Nc1ccc2[nH]c3c(C(=O)NCCN(C)C)cccc3c(=O)c2c1`, with 22 µM.

In the case of `O=c1c2ccccc2n(CCCCN2CCN(CCO)CC2)c2c(Cl)cccc12`, the IC50 in assay [22] is 1.07 µM; in [23], 0.49 µM; in assay [24] it was 0.45 µM.
